Assay results taken from PubChem BioAssay (NCI).
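Assay format: 96-well plates, 48-hour exposure. The concentration for 50% growth inhibition is given as GI50. At the TGI there is no net growth.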

Columns and labels:
Test in all cases: NCI anticancer screen, dose series, 48 h
OVCAR-3 ovarian = system: OVCAR-3 ovarian
NCI-H460 lung = system: NCI-H460 lung
HCT-116 colon = system: HCT-116 colon
SNB-75 CNS = system: SNB-75 CNS
CCRF-CEM leukemia = system: CCRF-CEM leukemia
OVCAR-5 ovarian = system: OVCAR-5 ovarian
DU-145 prostate = system: DU-145 prostate
PC-3 prostate = system: PC-3 prostate
SNB-19 CNS = system: SNB-19 CNS
HL-60(TB) leukemia = system: HL-60(TB) leukemia
UACC-62 melanoma = system: UACC-62 melanoma
786-0 renal = system: 786-0 renal
SK-MEL-5 melanoma = system: SK-MEL-5 melanoma
SN12C renal = system: SN12C renal
HS 578T breast = system: HS 578T breast
LOX IMVI melanoma = system: LOX IMVI melanoma
TK-10 renal = system: TK-10 renal
NCI-H522 lung = system: NCI-H522 lung
EKVX NSCLC = system: EKVX NSCLC
SK-MEL-2 melanoma = system: SK-MEL-2 melanoma
SR leukemia = system: SR leukemia
MOLT-4 leukemia = system: MOLT-4 leukemia
OVCAR-4 ovarian = system: OVCAR-4 ovarian
ACHN renal = system: ACHN renal
MDA-MB-435 = system: MDA-MB-435
UACC-257 melanoma = system: UACC-257 melanoma
M14 melanoma = system: M14 melanoma
SK-OV-3 ovarian = system: SK-OV-3 ovarian
OVCAR-8 ovarian = system: OVCAR-8 ovarian
HT29 colon = system: HT29 colon
A498 renal = system: A498 renal
HOP-92 NSCLC = system: HOP-92 NSCLC
NCI-H23 lung = system: NCI-H23 lung
SW-620 colon = system: SW-620 colon
HCT-15 colon = system: HCT-15 colon
SF-539 CNS = system: SF-539 CNS
MALME-3M melanoma = system: MALME-3M melanoma
HOP-62 NSCLC = system: HOP-62 NSCLC
SF-295 CNS = system: SF-295 CNS
MCF7 breast = system: MCF7 breast
COLO 205 colon = system: COLO 205 colon
IGROV1 ovarian = system: IGROV1 ovarian
SF-268 CNS = system: SF-268 CNS
CAKI-1 renal = system: CAKI-1 renal
A549 NSCLC = system: A549 NSCLC
KM12 colon = system: KM12 colon
UO-31 renal = system: UO-31 renal
K-562 leukemia = system: K-562 leukemia
NCI-H226 lung = system: NCI-H226 lung
U251 CNS = system: U251 CNS
T-47D breast = system: T-47D breast
MDA-MB-231 breast = system: MDA-MB-231 breast
NCI/ADR-RES ovarian = system: NCI/ADR-RES ovarian
SK-MEL-28 melanoma = system: SK-MEL-28 melanoma
RPMI-8226 leukemia = system: RPMI-8226 leukemia
BT-549 breast = system: BT-549 breast

c1cc(N2CCN(c3ccc(C4=NCCN4)cc3)CC2)ccc1C1=NCCN1
GI50 (OVCAR-3 ovarian): > 46.9 µM | TGI (OVCAR-3 ovarian): > 86 µM | GI50 (NCI-H460 lung): 24.9 µM | TGI (NCI-H460 lung): > 100 µM | GI50 (HCT-116 colon): > 100 µM | TGI (HCT-116 colon): > 100 µM | GI50 (SNB-75 CNS): > 100 µM | TGI (SNB-75 CNS): > 100 µM | GI50 (CCRF-CEM leukemia): > 87.4 µM | TGI (CCRF-CEM leukemia): > 100 µM | GI50 (OVCAR-5 ovarian): > 100 µM | TGI (OVCAR-5 ovarian): > 100 µM | GI50 (DU-145 prostate): 45.7 µM | TGI (DU-145 prostate): > 100 µM | GI50 (PC-3 prostate): > 73.6 µM | TGI (PC-3 prostate): > 100 µM | GI50 (SNB-19 CNS): > 100 µM | TGI (SNB-19 CNS): > 100 µM | GI50 (HL-60(TB) leukemia): > 100 µM | TGI (HL-60(TB) leukemia): > 100 µM | GI50 (UACC-62 melanoma): 41.9 µM | TGI (UACC-62 melanoma): > 100 µM | GI50 (786-0 renal): > 68.9 µM | TGI (786-0 renal): > 100 µM | GI50 (SK-MEL-5 melanoma): 22.4 µM | TGI (SK-MEL-5 melanoma): > 68.8 µM | GI50 (SN12C renal): 1.85 µM | TGI (SN12C renal): > 26.4 µM | GI50 (HS 578T breast): 25.1 µM | TGI (HS 578T breast): > 78.2 µM | GI50 (LOX IMVI melanoma): > 100 µM | TGI (LOX IMVI melanoma): > 100 µM | GI50 (TK-10 renal): 43 µM | TGI (TK-10 renal): 98.9 µM | GI50 (NCI-H522 lung): 21.2 µM | TGI (NCI-H522 lung): > 77.3 µM | GI50 (EKVX NSCLC): 11.5 µM | TGI (EKVX NSCLC): 65.2 µM | GI50 (SK-MEL-2 melanoma): 52.4 µM | TGI (SK-MEL-2 melanoma): > 100 µM | GI50 (SR leukemia): 30.8 µM | TGI (SR leukemia): > 100 µM | GI50 (MOLT-4 leukemia): > 100 µM | TGI (MOLT-4 leukemia): > 100 µM | GI50 (OVCAR-4 ovarian): > 100 µM | TGI (OVCAR-4 ovarian): > 100 µM | GI50 (ACHN renal): > 100 µM | TGI (ACHN renal): > 100 µM | GI50 (MDA-MB-435): 58 µM | TGI (MDA-MB-435): > 100 µM | GI50 (UACC-257 melanoma): 58.7 µM | TGI (UACC-257 melanoma): 97.5 µM | GI50 (M14 melanoma): > 61 µM | TGI (M14 melanoma): > 100 µM | GI50 (SK-OV-3 ovarian): > 100 µM | TGI (SK-OV-3 ovarian): > 100 µM | GI50 (OVCAR-8 ovarian): 37.2 µM | TGI (OVCAR-8 ovarian): > 100 µM | GI50 (HT29 colon): > 100 µM | TGI (HT29 colon): > 100 µM | GI50 (A498 renal): 7.5 µM | TGI (A498 renal): > 100 µM | GI50 (HOP-92 NSCLC): > 100 µM | TGI (HOP-92 NSCLC): > 100 µM | GI50 (NCI-H23 lung): > 44.4 µM | TGI (NCI-H23 lung): > 100 µM | GI50 (SW-620 colon): > 100 µM | TGI (SW-620 colon): > 100 µM | GI50 (HCT-15 colon): 66.3 µM | TGI (HCT-15 colon): > 100 µM | GI50 (SF-539 CNS): 55.4 µM | TGI (SF-539 CNS): > 100 µM | GI50 (MALME-3M melanoma): 48.8 µM | TGI (MALME-3M melanoma): > 100 µM | GI50 (HOP-62 NSCLC): 16 µM | TGI (HOP-62 NSCLC): 58.7 µM | GI50 (SF-295 CNS): 24.8 µM | TGI (SF-295 CNS): > 80.4 µM | GI50 (MCF7 breast): 24.6 µM | TGI (MCF7 breast): > 100 µM | GI50 (COLO 205 colon): > 100 µM | TGI (COLO 205 colon): > 100 µM | GI50 (IGROV1 ovarian): 55.9 µM | TGI (IGROV1 ovarian): > 100 µM | GI50 (SF-268 CNS): > 75.3 µM | TGI (SF-268 CNS): > 100 µM | GI50 (CAKI-1 renal): > 57.5 µM | TGI (CAKI-1 renal): > 100 µM | GI50 (A549 NSCLC): 66.7 µM | TGI (A549 NSCLC): > 100 µM | GI50 (KM12 colon): > 49 µM | TGI (KM12 colon): > 96.1 µM | GI50 (UO-31 renal): > 72 µM | TGI (UO-31 renal): > 100 µM | GI50 (K-562 leukemia): 39.4 µM | TGI (K-562 leukemia): > 100 µM | GI50 (NCI-H226 lung): > 80.6 µM | TGI (NCI-H226 lung): > 100 µM | GI50 (U251 CNS): 32.7 µM | TGI (U251 CNS): > 100 µM | GI50 (T-47D breast): > 100 µM | TGI (T-47D breast): > 100 µM | GI50 (MDA-MB-231 breast): > 100 µM | TGI (MDA-MB-231 breast): > 100 µM | GI50 (NCI/ADR-RES ovarian): > 100 µM | TGI (NCI/ADR-RES ovarian): > 100 µM | GI50 (SK-MEL-28 melanoma): > 67.5 µM | TGI (SK-MEL-28 melanoma): > 100 µM | GI50 (RPMI-8226 leukemia): 12.8 µM | TGI (RPMI-8226 leukemia): > 53.5 µM | GI50 (BT-549 breast): 24.9 µM | TGI (BT-549 breast): > 84.5 µM
